Test results published in PubChem BioAssay (NCI).
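Test compounds were applied to cells in 96-well plates for 48 hours at 5 doses. At the GI50, growth is halved. TGI denotes the concentration required for complete inhibition of growth.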

What was measured:
Experiment in all cases: NCI tumour cell line growth inhibition, 48 h
HCT-116 colon = test system: HCT-116 colon
SF-539 CNS = test system: SF-539 CNS
SF-295 CNS = test system: SF-295 CNS
HOP-92 NSCLC = test system: HOP-92 NSCLC
SK-OV-3 ovarian = test system: SK-OV-3 ovarian
LOX IMVI melanoma = test system: LOX IMVI melanoma
HT29 colon = test system: HT29 colon
UO-31 renal = test system: UO-31 renal
NCI-H23 lung = test system: NCI-H23 lung
UACC-257 melanoma = test system: UACC-257 melanoma
KM12 colon = test system: KM12 colon
NCI-H460 lung = test system: NCI-H460 lung
A498 renal = test system: A498 renal
CCRF-CEM leukemia = test system: CCRF-CEM leukemia
SN12C renal = test system: SN12C renal
IGROV1 ovarian = test system: IGROV1 ovarian
MALME-3M melanoma = test system: MALME-3M melanoma
KM20L2 colon = test system: KM20L2 colon
HL-60(TB) leukemia = test system: HL-60(TB) leukemia
M14 melanoma = test system: M14 melanoma
SK-MEL-28 melanoma = test system: SK-MEL-28 melanoma
SNB-19 CNS = test system: SNB-19 CNS
SNB-75 CNS = test system: SNB-75 CNS
SK-MEL-2 melanoma = test system: SK-MEL-2 melanoma
K-562 leukemia = test system: K-562 leukemia
U251 CNS = test system: U251 CNS
TK-10 renal = test system: TK-10 renal
OVCAR-8 ovarian = test system: OVCAR-8 ovarian
COLO 205 colon = test system: COLO 205 colon
MOLT-4 leukemia = test system: MOLT-4 leukemia
RPMI-8226 leukemia = test system: RPMI-8226 leukemia
SW-620 colon = test system: SW-620 colon
OVCAR-4 ovarian = test system: OVCAR-4 ovarian
NCI-H226 lung = test system: NCI-H226 lung
SK-MEL-5 melanoma = test system: SK-MEL-5 melanoma
786-0 renal = test system: 786-0 renal
A549 NSCLC = test system: A549 NSCLC
CAKI-1 renal = test system: CAKI-1 renal
SF-268 CNS = test system: SF-268 CNS
SR leukemia = test system: SR leukemia
HOP-62 NSCLC = test system: HOP-62 NSCLC
ACHN renal = test system: ACHN renal
OVCAR-5 ovarian = test system: OVCAR-5 ovarian
OVCAR-3 ovarian = test system: OVCAR-3 ovarian
HCT-15 colon = test system: HCT-15 colon
UACC-62 melanoma = test system: UACC-62 melanoma
M19-MEL melanoma = test system: M19-MEL melanoma
NCI-H522 lung = test system: NCI-H522 lung
HCC-2998 colon = test system: HCC-2998 colon
SNB-78 CNS = test system: SNB-78 CNS
XF 498 CNS = test system: XF 498 CNS
EKVX NSCLC = test system: EKVX NSCLC
RXF 393 renal = test system: RXF 393 renal
DLD-1 colon = test system: DLD-1 colon
HOP-18 NSCLC = test system: HOP-18 NSCLC
DMS 114 small cell lung = test system: DMS 114 small cell lung
DMS 273 small cell lung = test system: DMS 273 small cell lung

`COc1cccc(/C=N/[N-]C(N)=O)c1[O-].[Ni+2].[OH3+].c1cnc2c(c1)ccc1cccnc12` was tested, and the TGI (HCT-116 colon) was greater than 100 µM, the TGI (SF-539 CNS) was greater than 100 µM and the TGI (SF-295 CNS) was greater than 100 µM. The TGI (HOP-92 NSCLC) was greater than 100 µM, the TGI (SK-OV-3 ovarian) was greater than 100 µM and the TGI (LOX IMVI melanoma) was greater than 100 µM. The TGI (HT29 colon) was greater than 100 µM, the TGI (UO-31 renal) was greater than 100 µM and the TGI (NCI-H23 lung) was greater than 100 µM. The TGI (UACC-257 melanoma) was greater than 100 µM, the TGI (KM12 colon) was greater than 100 µM and the TGI (NCI-H460 lung) was greater than 100 µM. The TGI (A498 renal) was greater than 100 µM, the TGI (CCRF-CEM leukemia) was greater than 100 µM and the TGI (SN12C renal) was greater than 100 µM. The TGI (IGROV1 ovarian) was greater than 100 µM, the TGI (MALME-3M melanoma) was greater than 100 µM and the TGI (KM20L2 colon) was greater than 100 µM. It also gave a GI50 (HL-60(TB) leukemia) of 69.5 µM, a TGI (HL-60(TB) leukemia) greater than 100 µM and a TGI (M14 melanoma) greater than 100 µM. It also gave a TGI (SK-MEL-28 melanoma) greater than 100 µM, a TGI (SNB-19 CNS) greater than 100 µM and a TGI (SNB-75 CNS) greater than 100 µM. For the same molecule, the TGI (SK-MEL-2 melanoma) was greater than 100 µM, the TGI (K-562 leukemia) was greater than 100 µM and the TGI (U251 CNS) was greater than 100 µM. The TGI (TK-10 renal) was greater than 100 µM, the TGI (OVCAR-8 ovarian) was greater than 100 µM and the TGI (COLO 205 colon) was greater than 100 µM. The TGI (MOLT-4 leukemia) was greater than 100 µM, the TGI (RPMI-8226 leukemia) was greater than 100 µM and the TGI (SW-620 colon) was greater than 100 µM. The TGI (OVCAR-4 ovarian) was greater than 100 µM, the TGI (NCI-H226 lung) was greater than 100 µM and the TGI (SK-MEL-5 melanoma) was greater than 100 µM. For the same molecule, the TGI (786-0 renal) was greater than 100 µM, the TGI (A549 NSCLC) was greater than 100 µM and the TGI (CAKI-1 renal) was greater than 100 µM. The TGI (SF-268 CNS) was greater than 100 µM, the TGI (SR leukemia) was greater than 100 µM and the TGI (HOP-62 NSCLC) was greater than 100 µM. For the same molecule, the TGI (ACHN renal) was greater than 100 µM, the TGI (OVCAR-5 ovarian) was greater than 100 µM and the TGI (OVCAR-3 ovarian) was greater than 100 µM. It also gave a TGI (HCT-15 colon) greater than 100 µM and a TGI (UACC-62 melanoma) greater than 100 µM.

`C1OC1CO[C@@H]1CO[C@H]2[C@@H]1OC[C@H]2OCC1CO1` (some centres undefined) showed a TGI (M19-MEL melanoma) greater than 100 µM, a TGI (HCT-116 colon) greater than 100 µM and a TGI (SF-539 CNS) greater than 100 µM. The TGI (SF-295 CNS) was greater than 100 µM, the TGI (HOP-92 NSCLC) was greater than 100 µM and the TGI (SK-OV-3 ovarian) was greater than 100 µM. It also gave a TGI (LOX IMVI melanoma) greater than 100 µM, a TGI (HT29 colon) greater than 100 µM and a TGI (UO-31 renal) greater than 100 µM. For the same molecule, the TGI (NCI-H23 lung) was greater than 100 µM, the TGI (UACC-257 melanoma) was greater than 100 µM and the TGI (KM12 colon) was greater than 100 µM. For the same molecule, the TGI (NCI-H522 lung) was greater than 100 µM, the TGI (NCI-H460 lung) was greater than 100 µM and the TGI (A498 renal) was greater than 100 µM. The TGI (CCRF-CEM leukemia) was greater than 100 µM, the TGI (SN12C renal) was greater than 100 µM and the TGI (IGROV1 ovarian) was greater than 100 µM. The TGI (HCC-2998 colon) was greater than 100 µM, the TGI (MALME-3M melanoma) was greater than 100 µM and the TGI (KM20L2 colon) was greater than 100 µM. It also gave a TGI (HL-60(TB) leukemia) greater than 100 µM, a TGI (SNB-78 CNS) greater than 100 µM and a TGI (M14 melanoma) greater than 100 µM. The TGI (SK-MEL-28 melanoma) was greater than 100 µM, the TGI (SNB-19 CNS) was greater than 100 µM and the TGI (SNB-75 CNS) was greater than 100 µM. It also gave a TGI (SK-MEL-2 melanoma) greater than 100 µM, a TGI (XF 498 CNS) greater than 100 µM and a TGI (K-562 leukemia) greater than 100 µM. It also gave a TGI (EKVX NSCLC) greater than 100 µM, a TGI (U251 CNS) greater than 100 µM and a TGI (TK-10 renal) greater than 100 µM. It also gave a TGI (OVCAR-8 ovarian) greater than 100 µM, a TGI (COLO 205 colon) greater than 100 µM and a TGI (RXF 393 renal) greater than 100 µM. The TGI (DLD-1 colon) was greater than 100 µM, the TGI (MOLT-4 leukemia) was greater than 100 µM and the TGI (RPMI-8226 leukemia) was greater than 100 µM. For the same molecule, the TGI (SW-620 colon) was greater than 100 µM, the TGI (OVCAR-4 ovarian) was greater than 100 µM and the TGI (HOP-18 NSCLC) was greater than 100 µM. It also gave a TGI (NCI-H226 lung) greater than 100 µM, a TGI (SK-MEL-5 melanoma) greater than 100 µM and a TGI (786-0 renal) greater than 100 µM. The TGI (DMS 114 small cell lung) was greater than 100 µM, the TGI (DMS 273 small cell lung) was greater than 100 µM and the TGI (A549 NSCLC) was greater than 100 µM. It also gave a TGI (CAKI-1 renal) greater than 100 µM, a TGI (SF-268 CNS) greater than 100 µM and a TGI (SR leukemia) greater than 100 µM. The TGI (HOP-62 NSCLC) was greater than 100 µM, the TGI (ACHN renal) was greater than 100 µM and the TGI (OVCAR-5 ovarian) was greater than 100 µM. It also gave a TGI (OVCAR-3 ovarian) greater than 100 µM, a TGI (HCT-15 colon) greater than 100 µM and a TGI (UACC-62 melanoma) greater than 100 µM.
